Results taken from patent EP1143970B1, “PYRIDINE COMPOUNDS, USE AND PREPARATION THEREOF” (priority 1999, dated 2000).
Read-outs that look alike come from different tables or passages of the source. Marks after values point to notes of the source that are not given here.

How the values were obtained:
human MX-1 mammary tumor [1] = experiment: In vivo antitumor activity against s.c.-implanted human MX-1 mammary tumor xenograft; conditions: sc MX-1, Days 12-16
Description: (§1) The antitumor activity data of the acyl derivatives of DM-PEN vs MX-1 human mammary tumor xenograft implanted s.c. or i.c. with intraperitoneal (i.p.) or oral drug treatment are shown in Table 1 below.

human MX-1 mammary tumor [2] = experiment: In vivo antitumor activity against i.c.-implanted human MX-1 mammary tumor xenograft; parameters: species or system mouse; conditions: for Median % ILS: I.C.-implanted MX-1, optimal doses (LD10 or less), schedule QD1-5, I.P., based on dying mice only
Description: as §1
Table 2Comparative Activity of PEN, DM-PEN and DM-ACYL-PEN Against […] Human MX-1 Mammary Tumor at Optimal Doses (LD10 or Less) and Schedule (QD1-5) Administered I.P.

Cytotoxicity in vitro = conditions: without metabolism
P388/CPA = experiment: Antitumor activity against IP-implanted P388/CPA leukemia in mice; type: in vivo, murine; conditions: Q1D X 5 (1)
P388/BCNU = experiment: Antitumor activity against IP-implanted P388/BCNU leukemia in mice; conditions: Q1D X 5 (1)
P388/L-PAM = experiment: Antitumor activity against IP-implanted P388/L-PAM leukemia in mice
[3] = rats; muscle tremors, incoordination, convulsions and reduced activity; cited from earlier work
[4] = 14C-penclomedine, tumor-bearing rats; cited from earlier work
[5] = P388/0, IP 60.0 MG/KG/DOSE, Q1D X 5 (1)
[6] = P388/0, IP 90.0 MG/KG/DOSE, Q1D X 5 (1)
[7] = P388/0, IP 135.0 MG/KG/DOSE, Q1D X 5 (1)
[8] = P388/L-PAM, IP 60.0 MG/KG/DOSE, Q1D X 5 (1)
[9] = P388/L-PAM, IP 90.0 MG/KG/DOSE, Q1D X 5 (1)
[10] = P388/L-PAM, IP 135.0 MG/KG/DOSE, Q1D X 5 (1)

COc1nc(C(Cl)(Cl)Cl)c(Cl)c(OC(=O)CI)c1Cl [DM-IA-PEN]
Lethality at the stated dosage (LD level) (human MX-1 mammary tumor [1]; IP 60 mg/kg/dose): 60 (LD40)

COc1nc(C(Cl)(Cl)Cl)c(Cl)c(OC(=O)c2ccncc2)c1Cl [DM-IN-PEN]
Lethality at the stated dosage (LD level) (human MX-1 mammary tumor [1]; IP 90 mg/kg/dose): 90 (LD20)

COCC(=O)Oc1c(Cl)c(OC)nc(C(Cl)(Cl)Cl)c1Cl [DM-MA-PEN]
Median % ILS (human MX-1 mammary tumor [2]): 126^a % | Median % ILS (dying mice only) (human MX-1 mammary tumor [2]; ic MX-1, IP 90 mg/kg/dose, Days 1-5): +126%

CCCCCCCC(=O)Oc1c(Cl)c(OC)nc(C(Cl)(Cl)Cl)c1Cl [DM-O-PEN]
Median % ILS (human MX-1 mammary tumor [2]): 121^b %

COc1nc(C(Cl)(Cl)Cl)c(Cl)c(O)c1Cl [DM-PEN, 3,5-dichloro-2-methoxy-4-hydroxy-6-(trichloromethyl)pyridine]
cytotoxic agents in vitro (in words) (Cytotoxicity in vitro): inactive | 50-DAY SURV./ TOTAL (P388/CPA; IP 60.0 MG/KG/DOSE): 0 / 6 | 50-DAY SURV./ TOTAL (P388/CPA; IP 90.0 MG/KG/DOSE): 0 / 6 | 50-DAY SURV./ TOTAL (P388/CPA; IP 135.0 MG/KG/DOSE): 0 / 6 | 50-DAY SURV./ TOTAL (P388/0; [5]): 0 / 6 | MEDIAN DAY OF DEATH (P388/0; [5]): 18.0 | 50-DAY SURV./ TOTAL (P388/0; [6]): 0 / 6 | MEDIAN DAY OF DEATH (P388/0; [6]): 18.0 | 50-DAY SURV./ TOTAL (P388/0; [7]): 0 / 6 | MEDIAN DAY OF DEATH (P388/0; [7]): 8.6 | 50-DAY SURV./ TOTAL (P388/BCNU; IP 60.0 MG/KG/DOSE): 0 / 6 | APPROX. NET LOG10 CHANGE IN TUMOR BURDEN AT END OF Rx (P388/BCNU; IP 60.0 MG/KG/DOSE): +0.6 | 50-DAY SURV./ TOTAL (P388/BCNU; IP 90.0 MG/KG/DOSE): 0 / 6 | % ILS (P388/BCNU; IP 90.0 MG/KG/DOSE): +65% | 50-DAY SURV./ TOTAL (P388/BCNU; IP 135.0 MG/KG/DOSE): 0 / 6 | Lethality at the stated dosage (LD level) (P388/BCNU; IP 135.0 MG/KG/DOSE): LD17 | 50-DAY SDRV./ TOTAL (P388/L-PAM; [8]): 0 / 8 | APPROX. NET LOG10 CHANGE IN TUMOR BURDEN AT END OF Rx (P388/L-PAM; [8]): +1.5 | MEDIAN DAY OF DEATH (P388/L-PAM; [8]): 13.6 | 50-DAY SDRV./ TOTAL (P388/L-PAM; [9]): 0 / 6 | APPROX. NET LOG10 CHANGE IN TUMOR BURDEN AT END OF Rx (P388/L-PAM; [9]): +1.5 | 50-DAY SDRV./ TOTAL (P388/L-PAM; [10]): 0 / 6 | APPROX. NET LOG10 CHANGE IN TUMOR BURDEN AT END OF Rx (P388/L-PAM; [10]): +1.5 | Lethality at the stated dosage (LD level) (P388/L-PAM; [10]): 1.033 | Median % ILS (human MX-1 mammary tumor [2]): 60%

COc1nc(C(Cl)(Cl)Cl)c(Cl)c(OC(=O)c2cccs2)c1Cl [DM-TC-PEN]
Median % ILS (human MX-1 mammary tumor [2]): 100^d %

N[C@@H](Cc1ccc(N(CCCl)CCCl)cc1)C(=O)O [L-PAM, melphalan]
50-DAY SURV./ TOTAL (P388/0; mouse, in vivo, ip, 15 mg/kg): 6 / 6 | 50-DAY SURV./ TOTAL (P388/0; mouse, in vivo, ip, 20 mg/kg): 6 / 6 | APPROX. NET LOG10 CHANGE IN TUMOR BURDEN AT END OF Rx (P388/0; mouse, in vivo, ip, 20 mg/kg): ca -6.6 | 50-DAY SDRV./ TOTAL (P388/L-PAM; mouse, in vivo, ip, 15 mg/kg): 0 / 6 | APPROX. NET LOG10 CHANGE IN TUMOR BURDEN AT END OF Rx (P388/L-PAM; mouse, in vivo, ip, 15 mg/kg): -1.6 | MEDIAN DAY OF DEATH (P388/L-PAM; mouse, in vivo, ip, 15 mg/kg): 16.0 | 50-DAY SDRV./ TOTAL (P388/L-PAM; mouse, in vivo, ip, 20 mg/kg): 0/6 | APPROX. NET LOG10 CHANGE IN TUMOR BURDEN AT END OF Rx (P388/L-PAM; mouse, in vivo, ip, 20 mg/kg): -1.6 | MEDIAN DAY OF DEATH (P388/L-PAM; mouse, in vivo, ip, 20 mg/kg): 16.0

COc1nc(C(Cl)(Cl)Cl)c(Cl)c(OC)c1Cl [PEN, 3,5-dichloro-2,4-dimethoxy-6-(trichloromethyl)pyridine]
neurotoxicity [3]: Dose related neurotoxicity | radioactive species in the brain [4]: predominant radioactive species in the brain was penclomedine | cytotoxic agents in vitro (in words) (Cytotoxicity in vitro): inactive | 50-DAY SURV./ TOTAL (P388/CPA; IP 60.0 MG/KG/DOSE): 0 / 6 | MEDIAN DAY OF DEATH (P388/CPA; IP 60.0 MG/KG/DOSE): 10.5 | 50-DAY SURV./ TOTAL (P388/CPA; IP 90.0 MG/KG/DOSE): 0 / 6 | MEDIAN DAY OF DEATH (P388/CPA; IP 90.0 MG/KG/DOSE): 10.5 | 50-DAY SURV./ TOTAL (P388/CPA; IP 135.0 MG/KG/DOSE): 0 / 6 | MEDIAN DAY OF DEATH (P388/CPA; IP 135.0 MG/KG/DOSE): 10.5 | 50-DAY SURV./ TOTAL (P388/0; [5]): 0 / 6 | MEDIAN DAY OF DEATH (P388/0; [5]): 14.5 | 50-DAY SURV./ TOTAL (P388/0; [6]): 0 / 6 | APPROX. NET LOG10 CHANGE IN TUMOR BURDEN AT END OF Rx (P388/0; [6]): -0.6 | 50-DAY SURV./ TOTAL (P388/0; [7]): 0 / 6 | APPROX. NET LOG10 CHANGE IN TUMOR BURDEN AT END OF Rx (P388/0; [7]): -4.6 | 50-DAY SURV./ TOTAL (P388/BCNU; IP 60.0 MG/KG/DOSE): 0 / 6 | 50-DAY SURV./ TOTAL (P388/BCNU; IP 90.0 MG/KG/DOSE): 0 / 6 | 50-DAY SURV./ TOTAL (P388/BCNU; IP 135.0 MG/KG/DOSE): 0 / 6 | MEDIAN DAY OF DEATH (P388/BCNU; IP 135.0 MG/KG/DOSE): 11.5 | 50-DAY SDRV./ TOTAL (P388/L-PAM; [8]): 0 / 6 | 50-DAY SDRV./ TOTAL (P388/L-PAM; [9]): 0 / 6 | APPROX. NET LOG10 CHANGE IN TUMOR BURDEN AT END OF Rx (P388/L-PAM; [9]): +1.5 | 50-DAY SDRV./ TOTAL (P388/L-PAM; [10]): 0 / 6 | APPROX. NET LOG10 CHANGE IN TUMOR BURDEN AT END OF Rx (P388/L-PAM; [10]): +1.5 | Median % ILS (human MX-1 mammary tumor [2]): 88%
